Measured values reported in the supplement of paper PMC10307832.

How the values were obtained:
[1] = compound: CC1(C)CCC(CN2CCN(c3ccc(C(=O)NS(=O)(=O)c4ccc(NCC5CCOCC5)c([N+](=O)[O-])c4)c(Oc4cnc5[nH]ccc5c4)c3)CC2)=C(c2ccc(Cl)cc2)C1 [Venetoclax] + O=C(CCCCCCC(=O)Nc1ccccc1)NO [Vorinostat] (partner 1 µM); experiment: relative viability (nuclei count vs DMSO), 5 days (fraction); higher = more cells survive
Method in brief: (§1)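 One day after seeding in 1536-well plates, lung cancer cell lines were dosed by pin tool. Dosing was either single-drug or a fixed anchor-drug dose plus five library-drug doses (not always all listed) in √10 steps. After 5 days, nuclei were stained in one fix-and-stain step and counted on 4× images, and relative viability is the nuclei count of treated wells over that of vehicle wells, given as the median of duplicate plates.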

[2] = compound: CC1(C)CCC(CN2CCN(c3ccc(C(=O)NS(=O)(=O)c4ccc(NCC5CCOCC5)c([N+](=O)[O-])c4)c(Oc4cnc5[nH]ccc5c4)c3)CC2)=C(c2ccc(Cl)cc2)C1 [Venetoclax] + NC(=O)Nc1cc(-c2cccc(F)c2)sc1C(=O)N[C@H]1CCCNC1 [AZD7762] (partner 0.2 µM); experiment: as above
Method in brief: as §1

Row | Cell Line | relative viability ([1]; first compound 0.01 µM) | relative viability ([1]; first compound 0.03162 µM) | relative viability ([1]; first compound 0.1 µM) | relative viability ([1]; first compound 0.3162 µM) | relative viability ([1]; first compound 1 µM) | relative viability ([2]; first compound 0.01 µM) | relative viability ([2]; first compound 0.03162 µM) | relative viability ([2]; first compound 0.1 µM) | relative viability ([2]; first compound 0.3162 µM) | relative viability ([2]; first compound 1 µM)
1 | NCI-H596 | 0.649 | 0.626 | 0.587 | 0.568 | 0.714 | 1.12 | 0.975 | 1.27 | 1.12 | 1.2
2 | NCI-H1944 | 0.606 | 0.586 | 0.442 | 0.608 | 0.498 | 0.74 | 0.573 | 0.429 | 0.479 | 0.468
3 | NCI-H2085 | 0.713 | 0.807 | 0.795 | 0.817 | 0.765 | 0.802 | 1.02 | 0.924 | 0.962 | 0.916
4 | NCI-H1648 |  | 0.397 | 0.494 | 0.451 | 0.477 |  | 0.69 | 0.649 | 0.758 | 0.527
5 | 201T | 0.858 | 1.02 | 0.917 | 0.975 | 0.947 | 0.572 | 0.634 | 0.612 | 0.644 | 0.639
6 | NCI-H2405 | 0.944 | 1.27 | 1.03 | 1.07 | 0.889 | 0.628 | 0.722 | 0.744 | 0.748 | 0.657
7 | LXF-289 | 0.885 | 0.791 | 0.746 | 0.751 | 0.734 | 1.19 | 1.06 | 1.02 | 1.06 | 1.01
8 | LC-2-ad | 0.721 | 0.729 | 0.641 | 0.69 | 0.686 | 0.992 | 0.856 | 0.809 | 0.845 | 0.802
9 | NCI-H2126 | 0.848 | 0.798 | 0.687 | 0.774 | 0.699 | 1.06 | 1.01 | 0.932 | 1.02 | 1
10 | COR-L23 | 0.428 | 0.439 | 0.39 | 0.433 | 0.392 |  |  |  |  | 
11 | BEN | 0.599 | 0.603 | 0.494 | 0.556 | 0.523 | 0.771 | 0.746 | 0.611 | 0.836 | 0.637
12 | ChaGo-K-1 | 0.879 | 0.759 | 0.546 | 0.694 | 0.737 | 0.884 | 0.854 | 0.849 | 0.888 | 0.85
13 | LK-2 | 0.214 | 0.38 | 0.304 | 0.278 | 0.248 | 0.634 | 0.673 | 0.461 | 0.356 | 0.381
14 | NCI-H460 | 0.602 | 0.684 | 0.653 | 0.739 | 0.6 | 0.754 | 0.653 | 0.619 | 0.669 | 0.566
15 | NCI-H647 | 0.451 | 0.629 | 0.529 | 0.528 | 0.465 | 0.402 | 0.429 | 0.364 | 0.539 | 0.394
16 | ABC-1 | 1.04 | 1.24 | 1.13 | 1.32 | 0.939 | 0.631 | 0.955 | 0.929 | 0.888 | 0.878
17 | NCI-H2023 | 0.749 | 0.708 | 0.73 | 0.631 | 0.587 |  |  |  |  | 
18 | NCI-H2009 | 0.746 | 0.729 | 0.758 | 0.714 | 0.681 |  |  |  |  | 
